# Experimental data as given in PMC11369081, “Molecular mechanism of prolactin-releasing peptide recognition and signaling via its G protein-coupled receptor” (Cell Discovery, 2024).
# Peptide text beside a SMILES is read from it.
# What was measured:
# Format in all cases: cell-based
# PrRPR WT = target: T1, PrRPR WT (Homo sapiens, UniProt P49683); assay: BRET2 Gq dissociation, WT; conditions: WT (reference for normalisation), Gq-coupling, AD293 cells; n = 3
# T1 construct: expressed in transfected cells; host or cells: AD293 cells
# T1 sequence (P49683 1-370): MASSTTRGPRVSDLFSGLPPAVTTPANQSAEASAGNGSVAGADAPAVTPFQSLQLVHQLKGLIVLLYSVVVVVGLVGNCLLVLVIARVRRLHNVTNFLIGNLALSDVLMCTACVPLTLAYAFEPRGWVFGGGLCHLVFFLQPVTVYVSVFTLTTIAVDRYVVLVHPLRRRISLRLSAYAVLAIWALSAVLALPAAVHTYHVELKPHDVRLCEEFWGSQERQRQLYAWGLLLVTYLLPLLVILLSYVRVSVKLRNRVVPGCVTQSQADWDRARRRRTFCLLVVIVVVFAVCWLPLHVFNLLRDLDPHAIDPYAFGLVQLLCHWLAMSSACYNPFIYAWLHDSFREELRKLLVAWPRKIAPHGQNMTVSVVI
# Description: (§1) AD293 cells (Agilent) were propagated in Dulbecco’s Modified Eagle Medium (DMEM, Thermo Fisher Scientific), enriched with 10% fetal bovine serum (FBS, Thermo Fisher Scientific), and maintained at 37 °C in a 5% CO2 environment. Cells were then seeded in 6-well dishes at a density of 130,000–150,000 cells per mL and allowed to incubate overnight. On the next day, cells were transfected with plasmids at a 1:1:1:1 ratio for receptor:Gα-RLuc8:Gβ:Gγ-GFP2[52]. PEI MAX 40 K (BIOHUB) was utilized to form complex with the plasmids at a ratio of 3 µL PEI per µg of plasmids, in OptiMEM (Gibco-Thermo Fisher Scientific) at a concentration of 10 ng plasmids per µL OptiMEM. After 24 h of incubation, the culture was harvested by centrifugation with PBS. The cell suspension was then allocated into a white 384-well plate at a volume of 30 µL per well, followed by the addition of 10 µL of freshly prepared 50 µM coelenterazine 400a (Yeasen). […] Plates were subsequently read in a BioTek Synergy H1 microplate reader (BioTek) equipped with 395 nm (RLuc8-coelenterazine 400a) and 510 nm (GFP2) emission filters. BRET2 ratios were calculated as the ratio of the GFP2 emission to RLuc8 emission. […]
# (§2) Supplementary Fig. S4 | Effects of mutations in the ligand-binding pocket and G protein intereface of Gq coupled PrRPR by BRET2 assay. […] BRET2 assay signals were measured after stimulation with PrRP20. […]
# PrRPR C113A = target: T2, PrRPR C113A (Homo sapiens, UniProt P49683, C113A); assay: BRET2 Gi dissociation, C113A; conditions: C113A (2.57), Gi-coupling, AD293 cells; mean ± S.E.M., n = 3; P 0.0008 vs WT; read-out: BRET2 pEC50 (converted)
# T2 construct: expressed in transfected cells; host or cells: AD293 cells
# Description: (§3) AD293 cells (Agilent) were propagated in Dulbecco’s Modified Eagle Medium (DMEM, Thermo Fisher Scientific), enriched with 10% fetal bovine serum (FBS, Thermo Fisher Scientific), and maintained at 37 °C in a 5% CO2 environment. Cells were then seeded in 6-well dishes at a density of 130,000–150,000 cells per mL and allowed to incubate overnight. On the next day, cells were transfected with plasmids at a 1:1:1:1 ratio for receptor:Gα-RLuc8:Gβ:Gγ-GFP2[52]. PEI MAX 40 K (BIOHUB) was utilized to form complex with the plasmids at a ratio of 3 µL PEI per µg of plasmids, in OptiMEM (Gibco-Thermo Fisher Scientific) at a concentration of 10 ng plasmids per µL OptiMEM. After 24 h of incubation, the culture was harvested by centrifugation with PBS. The cell suspension was then allocated into a white 384-well plate at a volume of 30 µL per well, followed by the addition of 10 µL of freshly prepared 50 µM coelenterazine 400a (Yeasen). Following a 15-min equilibration period, cells were treated with 10 µL of ligand for an additional 5 min. Plates were subsequently read in a BioTek Synergy H1 microplate reader (BioTek) equipped with 395 nm (RLuc8-coelenterazine 400a) and 510 nm (GFP2) emission filters. BRET2 ratios were calculated as the ratio of the GFP2 emission to RLuc8 emission. Data were normalized to the baseline response of the ligand. […]
# PrRPR E212A = target: T3, PrRPR E212A (Homo sapiens, UniProt P49683, E212A); assay: BRET2 Gq dissociation, E212A; conditions: E212A (45.51), Gq-coupling, AD293 cells; mean ± S.E.M., n = 3; P <0.0001 vs WT; read-out: BRET2 pEC50 (converted)
# T3 construct: expressed in transfected cells; host or cells: AD293 cells
# Description: as §1, §2
# PrRPR P142A = target: T4, PrRPR P142A (Homo sapiens, UniProt P49683, P142A); assay: BRET2 Gi dissociation, P142A; conditions: P142A (3.33), Gi-coupling, AD293 cells; mean ± S.E.M., n = 3; P 0.0035 vs WT; read-out: BRET2 pEC50 (converted)
# T4 construct: expressed in transfected cells; host or cells: AD293 cells
# Description: as §3
# PrRPR V145A [1] = target: T5, PrRPR V145A (Homo sapiens, UniProt P49683, V145A); assay: BRET2 Gq dissociation, V145A; conditions: V145A (3.36), Gq-coupling, AD293 cells; mean ± S.E.M., n = 3; P <0.0001 vs WT; read-out: BRET2 pEC50 (converted)
# T5 construct: expressed in transfected cells; host or cells: AD293 cells
# Description: as §1, §2
# PrRPR H295A = target: T6, PrRPR H295A (Homo sapiens, UniProt P49683, H295A); assay: BRET2 Gq dissociation, H295A; conditions: H295A (6.52), Gq-coupling, AD293 cells; mean ± S.E.M., n = 3; P <0.0001 vs WT; read-out: BRET2 pEC50 (converted)
# T6 construct: Flag; expressed in transfected cells; host or cells: AD293 cells
# Description: as §1, §2
# PrRPR Q317A = target: T7, PrRPR Q317A (Homo sapiens, UniProt P49683, Q317A); assay: BRET2 Gi dissociation, Q317A; conditions: Q317A (7.35), Gi-coupling, AD293 cells; mean ± S.E.M., n = 3; P <0.0001 vs WT; read-out: BRET2 pEC50 (converted)
# T7 construct: Flag; expressed in transfected cells; host or cells: AD293 cells
# Description: as §3
# PrRPR W127A = target: T8, PrRPR W127A (Homo sapiens, UniProt P49683, W127A); assay: BRET2 Gq dissociation, W127A; conditions: W127A (23.50), Gq-coupling, AD293 cells; mean ± S.E.M., n = 3; P <0.0001 vs WT; read-out: BRET2 pEC50 (converted)
# T8 construct: expressed in transfected cells; host or cells: AD293 cells
# Description: as §1, §2
# PrRPR L294A = target: T9, PrRPR L294A (Homo sapiens, UniProt P49683, L294A); assay: BRET2 Gi dissociation, L294A; conditions: L294A (6.51), Gi-coupling, AD293 cells; mean ± S.E.M., n = 3; P 0.2845 vs WT; read-out: BRET2 pEC50 (converted)
# T9 construct: Flag; expressed in transfected cells; host or cells: AD293 cells
# Description: as §3
# PrRPR V145A [2] = target: T5, PrRPR V145A; assay: BRET2 Gi dissociation, V145A; conditions: V145A (3.36), Gi-coupling, AD293 cells; mean ± S.E.M., n = 3; P 0.9852 vs WT; read-out: BRET2 pEC50 (converted)
# Description: as §3
# T5 sequence (P49683 whole entry V145A): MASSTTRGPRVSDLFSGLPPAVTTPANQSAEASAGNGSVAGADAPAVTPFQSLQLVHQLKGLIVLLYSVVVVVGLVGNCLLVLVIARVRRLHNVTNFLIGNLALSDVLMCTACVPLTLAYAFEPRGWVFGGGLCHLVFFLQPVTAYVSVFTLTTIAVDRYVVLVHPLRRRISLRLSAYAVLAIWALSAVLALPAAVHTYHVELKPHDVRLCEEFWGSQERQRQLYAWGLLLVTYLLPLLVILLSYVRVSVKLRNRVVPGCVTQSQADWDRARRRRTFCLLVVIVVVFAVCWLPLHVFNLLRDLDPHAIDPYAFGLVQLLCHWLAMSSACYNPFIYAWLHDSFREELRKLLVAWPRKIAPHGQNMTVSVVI
# T3 sequence (P49683 whole entry E212A): as the sequence (P49683 whole entry V145A) above, with A145V, E212A counted along it
# T6 sequence (P49683 whole entry H295A): as the sequence (P49683 whole entry V145A) above, with A145V, H295A counted along it
# T2 sequence (P49683 whole entry C113A): as the sequence (P49683 whole entry V145A) above, with C113A, A145V counted along it
# T8 sequence (P49683 whole entry W127A): as the sequence (P49683 whole entry V145A) above, with W127A, A145V counted along it
# T9 sequence (P49683 whole entry L294A): as the sequence (P49683 whole entry V145A) above, with A145V, L294A counted along it
# T7 sequence (P49683 whole entry Q317A): as the sequence (P49683 whole entry V145A) above, with A145V, Q317A counted along it
# T4 sequence (P49683 whole entry P142A): as the sequence (P49683 whole entry V145A) above, with P142A, A145V counted along it
smiles,measurement,setting,value
CC[C@H](C)[C@H](NC(=O)CNC(=O)[C@H](CCCNC(=N)N)NC(=O)[C@H](CO)NC(=O)[C@H](C)NC(=O)[C@H](Cc1ccc(O)cc1)NC(=O)[C@H](Cc1c[nH]c2ccccc12)NC(=O)[C@H](C)NC(=O)[C@@H]1CCCN1C(=O)[C@H](CC(N)=O)NC(=O)[C@@H](NC(=O)[C@H](CC(=O)O)NC(=O)[C@@H]1CCCN1C(=O)[C@@H](N)[C@@H](C)O)[C@@H](C)CC)C(=O)N[C@@H](CCCNC(=N)N)C(=O)N1CCC[C@H]1C(=O)N[C@H](C(=O)NCC(=O)N[C@@H](CCCNC(=N)N)C(=O)N[C@@H](Cc1ccccc1)C(N)=O)C(C)C [PrRP20] (H-TPDINPAWYASRGIRPVGRF-NH2),BRET2 span,PrRPR WT,100.00 %WT
same,EC50,PrRPR C113A,7.08 nM
same,EC50,PrRPR E212A,28.8 nM
same,EC50,PrRPR P142A,6.46 nM
same,EC50,PrRPR V145A [1],4.79 nM
same,EC50,PrRPR H295A,4.79 nM
same,EC50,PrRPR Q317A,4170 nM
same,EC50,PrRPR W127A,240 nM
same,EC50,PrRPR L294A,3.72 nM
same,EC50,PrRPR V145A [2],2.63 nM
